Experimental data from patent publication EP3755703B1, “N-(PHENYL)-2-(PHENYL)PYRIMIDINE-4-CARBOXAMIDE DERIVATIVES AND RELATED COMPOUNDS AS HPK1 INHIBITORS FOR TREATING CANCER” (Incyte Corporation, priority 2018, dated 2019).

Target: T1, HPK1 (Homo sapiens, UniProt Q92918)
T1 construct: purchased SignalChem M23-11G
T1 sequence (Q92918 1-346 limits assumed): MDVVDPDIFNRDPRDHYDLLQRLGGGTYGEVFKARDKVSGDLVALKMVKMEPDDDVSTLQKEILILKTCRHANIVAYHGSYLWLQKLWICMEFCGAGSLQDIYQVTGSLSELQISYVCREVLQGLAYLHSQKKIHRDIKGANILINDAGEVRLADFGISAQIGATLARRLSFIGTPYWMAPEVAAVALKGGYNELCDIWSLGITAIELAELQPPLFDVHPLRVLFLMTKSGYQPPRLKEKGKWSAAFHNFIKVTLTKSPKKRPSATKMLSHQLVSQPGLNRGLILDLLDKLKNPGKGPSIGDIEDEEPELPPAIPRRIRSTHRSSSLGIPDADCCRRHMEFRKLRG
Test: HPK1 Kinase Binding Assay
Details: LanthaScreen tracer 222, one hour incubation at 25 °C
Method: A stock solution of 1 mM test compound was prepared in DMSO. The compound plate was prepared by 3-fold and 11-point serial dilutions. 0.1 µL of the compound in DMSO was transferred from the compound plate to the white 384 well polystyrene plates. The assay buffer contained 50 mM HEPES, pH 7.5, 0.01% Tween-20, 5 mM MgCl2, 0.01% BSA, and 5 mM DTT. 5 µL of 4 nM active HPK1 (SignalChem M23-11G) prepared in the buffer was added to the plate. The enzyme concentration given was based on the given stock concentration reported by the vender. […] After one hour incubation at 25 °C, the plates were read on a PHERAstar FS plate reader (BMG Labtech). Ki values were determined.

Compound | Ki
COc1ccc(N2C[C@H]3C[C@@H]2CN3)c(NC(=O)c2ccnc(-c3c(F)cccc3OC)n2)c1 [Example 35, N-(2-((1R,4R)-2,5-Diazabicyclo[2.2.1]heptan-2-yl)-5-methoxyphenyl)-2-(2-fluoro-6-methoxyphenyl)pyrimidine-4-carboxamide] | < 100 nM
COc1cccc(F)c1-c1nccc(C(=O)Nc2cc(F)ccc2N2CCC[C@@H]2CO)n1 [Example 4, (R)-N-(5-Fluoro-2-(2-(hydroxymethyl)pyrrolidin-1-yl)phenyl)-2-(2-fluoro-6-methoxyphenyl)pyrimidine-4-carboxamide] | < 100 nM
COc1cccc(F)c1-c1nccc(C(=O)Nc2ccc(-c3ccncc3C#N)c(F)c2N2C[C@@H]3C[C@H]2CN3)n1 [Example 40, N-(2-((1S,4S)-2,5-Diazabicyclo[2.2.1]heptan-2-yl)-4-(3-cyanopyridin-4-yl)-3-fluorophenyl)-2-(2-fluoro-6-methoxyphenyl)pyrimidine-4-carboxamide] | < 100 nM
COc1cccc(F)c1-c1nccc(C(=O)Nc2cc(F)ccc2N2CCCC2c2ccccn2)n1 (centres unmarked) [Example 8, N-(5-Fluoro-2-(2-(pytidin-2-yl)pyrrolidin-1-yl)phenyl)-2-(2-fluoro-6-methoxyphenyl)pyrimidine-4-carboxamide] | 500 to 5000 nM
COc1cccc(F)c1-c1nccc(C(=O)Nc2cc(F)ccc2N2CCNC[C@@H]2CO)n1 [Example 11, (R)-N-(5-Fluoro-2-(2-(hydroxymethyl)piperazin-1-yl)phenyl)-2-(2-fluoro-6-methoxyphenyl)pyrimidine-4-carboxamide] | < 100 nM
COc1cccc(F)c1-c1nccc(C(=O)Nc2cc(F)c(CN3CCOCC3)cc2N2C[C@@H]3C[C@H]2CN3)n1 [Example 30, N-(2-((1S,4S)-2,5-Diazabicyclo[2.2.1]heptan-2-yl)-5-fluoro-4-(morpholinomethyl)phenyl)-2-(2-fluoro-6-methoxyphenyl)pyrimidine-4-carboxamide] | < 100 nM
CCN1C[C@H]2C[C@@H]1CN2c1ccc(F)cc1NC(=O)c1ccnc(-c2c(F)cccc2OC)n1 [Example 32, N-(2-((1R,4R)-5-Ethyl-2,5-diazabicyclo[2.2.1]heptan-2-yl)-5-fluorophenyl)-2-(2-fluoro-6-methoxyphenyl)pyrimidine-4-carboxamide] | < 100 nM
COc1cccc(F)c1-c1nccc(C(=O)Nc2cc(F)c(-c3ccc(CO)nc3)cc2N2C[C@@H]3C[C@H]2CN3)n1 [Example 20, N-(2-((1S,4S)-2,5-Diazabicyclo[2.2.1]heptan-2-yl)-5-fluoro-4-(6-(hydroxymethyl)pyridin-3-yl)phenyl)-2-(2-fluoro-6-methoxyphenyl)pyrimidine-4-carboxamide] | < 100 nM
COc1cccc(F)c1-c1nccc(C(=O)Nc2cc(F)ccc2N2C[C@H]3C[C@@H]2CN3CCO)n1 [Example 33, N-(5-Fluoro-2-((1R,4R)-5-(2-hydroxyethyl)-2,5-diazabicyclo[2.2.1]heptan-2-yl)phenyl)-2-(2-fluoro-6-methoxyphenyl)pyrimidine-4-carboxamide] | < 100 nM
COc1cccc(F)c1-c1nccc(C(=O)Nc2ccc(-c3c(C)nn(C)c3C)cc2N2C[C@@H]3C[C@H]2CN3)n1 [Example 27, N-(2-((1S,4S)-2,5-Diazabicyclo[2.2.1]heptan-2-yl)-4-(1,3,5-trimethyl-1H-pyrazol-4-yl)phenyl)-2-(2-fluoro-6-methoxyphenyl)pyrimidine-4-carboxamide] | < 100 nM
COc1cnccc1-c1ccc(NC(=O)c2ccnc(-c3c(F)cccc3OC)n2)c(N2C[C@@H](N)C[C@H]2CO)c1 [Example 44, N-(2-((2S,4S)-4-Amino-2-(hydroxymethyl)pyrrolidin-1-yl)-4-(3-methoxypyridin-4-yl)phenyl)-2-(2-fluoro-6-methoxyphenyl)pyrimidine-4-carboxamide] | < 100 nM

Second part, the molecule after the results:

Ki | Compound
100 to 500 nM | COc1ccc(C(=O)Nc2ccc(-c3cnccc3C#N)cc2N2C[C@@H](N)C[C@H]2CO)nc1-c1c(F)cccc1OC [Example 61, N-(2-((2S,4S)-4-Amino-2-(hydroxymethyl)pyrrolidin-1-yl)-4-(4-cyanopyridin-3-yl)phenyl)-6-(2-fluoro-6-methoxyphenyl)-5-methoxypicolinamide]
< 100 nM | COc1cccc(F)c1-c1nccc(C(=O)Nc2ccc(-c3ccncc3C#N)cc2N2C[C@@H](O)C[C@H]2CO)n1 [Example 49, N-(4-(3-Cyanopyridin-4-yl)-2-((2S,4S)-4-hydroxy-2-(hydroxymethyl)pyrrolidin-1-yl)phenyl)-2-(2-fluoro-6-methoxyphenyl)pyrimidine-4-carboxamide]
< 100 nM | [2H]C([2H])([2H])Oc1ccc(C#N)c(F)c1-c1nccc(C(=O)Nc2ccc(-c3cnccc3C#N)cc2N2C[C@@H](N)C[C@H]2CO)n1 [Example 74, N-(2-((2S,4S)-4-Amino-2-(hydroxymethyl)pyrrolidin-1-yl)-4-(4-cyanopyridin-3-yl)phenyl)-2-(3-cyano-2-fluoro-6-(methoxy-d3)phenyl)pyrimidine-4-carboxamide]
< 100 nM | COc1cccc(F)c1-c1cccc(C(=O)Nc2ccc(-c3cnccc3C#N)cc2N2C[C@@H](N)C[C@H]2CO)n1 [Example 59, N-(2-((2S,4S)-4-Amino-2-(hydroxymethyl)pyrrolidin-1-yl)-4-(4-cyanopyridin-3-yl)phenyl)-6-(2-fluoro-6-methoxyphenyl)picolinamide]
< 100 nM | COc1ccc(F)c(F)c1-c1nccc(C(=O)Nc2ccc(-c3cnccc3C#N)cc2N2C[C@@H](N)C[C@H]2CO)n1 [Example 72, N-(2-((2S,4S)-4-Amino-2-(hydroxymethyl)pyrrolidin-1-yl)-4-(4-cyanopyridin-3-yl)phenyl)-2-(2,3-difluoro-6-methoxyphenyl)pyrimidine-4-carboxamide]
< 100 nM | COc1cccc(F)c1-c1nccc(C(=O)Nc2ccc(-c3cnccc3C#N)cc2N2C[C@H](C)NC[C@H]2CO)n1 [Example 51, N-(4-(4-Cyanopyridin-3-yl)-2-((2S,5S)-2-(hydroxymethyl)-5-methylpiperazin-1-yl)phenyl)-2-(2-fluoro-6-methoxyphenyl)pyrimidine-4-carboxamide]
< 100 nM | COc1c(F)ccc(F)c1-c1nccc(C(=O)Nc2ccc(-c3cnccc3C#N)cc2N2C[C@@H](N)C[C@H]2CO)n1 [Example 73, N-(2-((2S,4S)-4-Amino-2-(hydroxymethyl)pyrrolidin-1-yl)-4-(4-cyanopyridin-3-yl)phenyl)-2-(3,6-difluoro-2-methoxyphenyl)pyrimidine-4-carboxamide]
100 to 500 nM | COc1cccc(F)c1-c1nccc(C(=O)Nc2ccccc2C2CCNCC2)n1 [Example 78, 2-(2-Fluoro-6-methoxyphenyl)-N-(2-(piperidin-4-yl)phenyl)pyrimidine-4-carboxamide]
< 100 nM | COc1cccc(F)c1-c1nccc(C(=O)Nc2ccc(-c3cnccc3C#N)cc2N2CC[C@@H]2CN(C)C)n1 [Example 107, (R)-N-(4-(4-Cyanopyridin-3-yl)-2-(2-((dimethylamino)methyl)azetidin-1-yl)phenyl)-2-(2-fluoro-6-methoxyphenyl)pyrimidine-4-carboxamide]
< 100 nM | [2H]C([2H])([2H])Oc1ccc(C)c(F)c1-c1nccc(C(=O)Nc2cc(F)ccc2N2C[C@@H](N)C[C@H]2CO)n1 [Example 69, N-(2-((2S,4S)-4-Amino-2-(hydroxymethyl)pyrrolidin-1-yl)-5-fluorophenyl)-2-(2-fluoro-6-(methoxy-d3)-3-methylphenyl)pyrimidine-4-carboxamide]
< 100 nM | COc1cccc(F)c1-c1nccc(C(=O)Nc2cc(F)c(C(C)C)cc2N2CCN[C@H](CO)C2)n1 [Example 110, (S)-N-(5-Fluoro-2-(3-(hydroxymethyl)piperazin-1-yl)-4-isopropylphenyl)-2-(2-fluoro-6-methoxyphenyl)pyrimidine-4-carboxamide]
< 100 nM | COc1cccc(F)c1-c1nccc(C(=O)Nc2cc(F)ccc2N2C[C@@H](NC(C)C)C[C@H]2CO)n1 [Example 89, N-(5-Fluoro-2-((2S,4S)-2-(hydroxymethyl)-4-(isopropylamino)pyrrolidin-1-yl)phenyl)-2-(2-fluoro-6-methoxyphenyl)pyrimidine-4-carboxamide]
< 100 nM | [2H]C([2H])([2H])Oc1c(F)ccc(F)c1-c1nccc(C(=O)Nc2ccc(-c3cnccc3C#N)cc2N2C[C@@H](N)C[C@H]2CO)n1 [Example 75, N-(2-((2S,4S)-4-Amino-2-(hydroxymethyl)pyrrolidin-1-yl)-4-(4-cyanopyridin-3-yl)phenyl)-2-(3,6-difluoro-2-(methoxy-d3)phenyl)pyrimidine-4-carboxamide]
